pEC50: −log10 of the molar value.
Molecular target: T1, STAT6 (Homo sapiens, UniProt P42226)
T1 construct: stably transfected HaCaT keratinocyte cell line, which expresses NanoLuc luciferase reporter gene under the transcriptional control of the STAT6 responsive promoter; endogenous in cells; host or cells: HaCaT keratinocyte reporter cell line (stably transfected with a NanoLuc reporter)
T1 sequence (P42226 1-847): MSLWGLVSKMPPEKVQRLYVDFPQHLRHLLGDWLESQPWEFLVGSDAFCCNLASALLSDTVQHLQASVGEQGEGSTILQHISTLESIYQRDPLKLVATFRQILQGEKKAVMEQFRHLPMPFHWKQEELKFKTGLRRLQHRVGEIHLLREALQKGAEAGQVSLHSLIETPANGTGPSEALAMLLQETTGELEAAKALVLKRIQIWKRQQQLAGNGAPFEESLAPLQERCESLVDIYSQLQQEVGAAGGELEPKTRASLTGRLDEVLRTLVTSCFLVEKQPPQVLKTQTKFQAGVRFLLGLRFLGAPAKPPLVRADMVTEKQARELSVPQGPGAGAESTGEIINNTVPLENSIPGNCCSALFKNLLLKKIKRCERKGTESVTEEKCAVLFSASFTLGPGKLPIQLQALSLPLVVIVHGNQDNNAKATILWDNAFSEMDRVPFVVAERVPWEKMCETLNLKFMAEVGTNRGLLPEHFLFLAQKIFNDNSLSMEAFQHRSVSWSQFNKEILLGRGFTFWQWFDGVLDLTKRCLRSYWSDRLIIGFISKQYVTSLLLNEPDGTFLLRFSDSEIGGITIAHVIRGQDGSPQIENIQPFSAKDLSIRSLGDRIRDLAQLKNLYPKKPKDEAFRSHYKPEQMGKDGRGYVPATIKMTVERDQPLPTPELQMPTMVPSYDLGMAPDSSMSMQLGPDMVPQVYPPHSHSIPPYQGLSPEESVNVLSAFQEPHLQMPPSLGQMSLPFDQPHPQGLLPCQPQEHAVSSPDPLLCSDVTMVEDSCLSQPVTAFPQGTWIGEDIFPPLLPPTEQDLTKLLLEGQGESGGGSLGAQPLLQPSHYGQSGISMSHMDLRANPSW
Assay: STAT6 Reporter Luciferase Assay (IL-13 stimulated HaCaT keratinocyte NanoLuc reporter cells)
Type: cell-based
Details: IL-13 stimulated HaCaT STAT6 NanoLuc reporter cells; read-out: Reporter EC50
Procedure, shortened: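 Stably transfected HaCaT cells carrying NanoLuc under the STAT6-responsive IL-13Ra2 promoter were pre-treated with compound (11-point, 4-fold series, duplicate) for 2 h at 37 °C, then stimulated with 0.12 nM IL-13 for 4 h. Nano-Glo luminescence was read after 15 min.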

Row | pEC50 | Structure (SMILES)
1 | 8.52 | CC(C)n1nc(C(=O)NCc2ccc(NC(=O)N3CCN(C)CC3)cc2)c2c1[C@@H](C)CN(c1ccc(-c3nccn3C3CC3)cn1)C2 [Example 653, (S)-5-(5-(1-cyclopropyl-1H-imidazol-2-yl)pyridin-2-yl)-1-isopropyl-7-methyl-N-(4-(4-methylpiperazine-1-carboxamido)benzyl)-4,5,6,7-tetrahydro-1H-pyrazolo[4,3-c]pyridine-3-carboxamide]
2 | 8.70 | CC(C)n1nc(C(=O)NCc2ccc(NC(=O)N3CCN(C)CC3)cc2)c2c1[C@@H](C)CN(c1ccc(-c3nccn3C(F)F)cn1)C2 [Example 654, (S)-5-(5-(1-(difluoromethyl)-1H-imidazol-2-yl)pyridin-2-yl)-1-isopropyl-7-methyl-N-(4-(4-methylpiperazine-1-carboxamido)benzyl)-4,5,6,7-tetrahydro-1H-pyrazolo[4,3-c]pyridine-3-carboxamide]
3 | 8.70 | CC(C)n1nc(C(=O)NCc2ccc(NC(=O)N3CCN(C)CC3)cc2)c2c1[C@@H](C)CN(c1ccc(-c3nncn3C3CC3)cn1)C2 [Example 655, (S)-5-(5-(4-cyclopropyl-4H-1,2,4-triazol-3-yl)pyridin-2-yl)-1-isopropyl-7-methyl-N-(4-(4-methylpiperazine-1-carboxamido)benzyl)-4,5,6,7-tetrahydro-1H-pyrazolo[4,3-c]pyridine-3-carboxamide]
4 | 8.70 | Cc1noc(=O)n1-c1ccc(N2Cc3c(C(=O)NCc4ccc(NC(=O)N5CCN(C)CC5)cc4)nn(C(C)C)c3[C@@H](C)C2)cc1 [Example 656, (S)-1-isopropyl-7-methyl-5-(4-(3-methyl-5-oxo-1,2,4-oxadiazol-4(5H)-yl)phenyl)-N-(4-(4-methylpiperazine-1-carboxamido)benzyl)-4,5,6,7-tetrahydro-1H-pyrazolo[4,3-c]pyridine-3-carboxamide]
5 | 8.70 | CC(C)n1nc(C(=O)NCc2ccc(NC(=O)N3CCN(C)CC3)cc2)c2c1[C@@H](C)CN(c1ccc3c(c1)OCCN(C)C3=O)C2 [Example 657, (S)-1-isopropyl-7-methyl-5-(4-methyl-5-oxo-2,3,4,5-tetrahydrobenzo[f][1,4]oxazepin-8-yl)-N-(4-(4-methylpiperazine-1-carboxamido)benzyl)-4,5,6,7-tetrahydro-1H-pyrazolo[4,3-c]pyridine-3-carboxamide]
6 | 8.40 | CC(C)n1nc(C(=O)NCc2ccc(NC(=O)N3CCN(C)CC3)cc2)c2c1[C@@H](C)CN(c1ccc(-c3nncn3C)cn1)C2 [Example 658, (S)-1-isopropyl-7-methyl-5-(5-(4-methyl-4H-1,2,4-triazol-3-yl)pyridin-2-yl)-N-(4-(4-methylpiperazine-1-carboxamido)benzyl)-4,5,6,7-tetrahydro-1H-pyrazolo[4,3-c]pyridine-3-carboxamide]
7 | 8.10 | CC(C)n1nc(C(=O)NCc2ccc(NC(=O)N3CC(C)(N(C)C)C3)c(F)c2)c2c1[C@@H](C)CN(c1ccc(C(=O)N(C)C)cc1)C2 [Example 659, (S)-N-(4-(3-(dimethylamino)-3-methylazetidine-1-carboxamido)-3-fluorobenzyl)-5-(4-(dimethylcarbamoyl)phenyl)-1-isopropyl-7-methyl-4,5,6,7-tetrahydro-1H-pyrazolo[4,3-c]pyridine-3-carboxamide]
8 | 8.40 | CC(C)n1nc(C(=O)NCc2ccc(NC(=O)N3CCC4(CCN(C)CC4)CC3)c(F)c2)c2c1[C@@H](C)CN(c1ccc(C(=O)N(C)C)cc1)C2 [Example 660, (S)-N-(4-((5-(4-(dimethylcarbamoyl)phenyl)-1-isopropyl-7-methyl-4,5,6,7-tetrahydro-1H-pyrazolo[4,3-c]pyridine-3-carboxamido)methyl)-2-fluorophenyl)-9-methyl-3,9-diazaspiro[5.5]undecane-3-carboxamide]
9 | 8.30 | CC(C)n1nc(C(=O)NCc2ccc(NC(=O)N(C)C)cc2)c2c1[C@@H](C)CN(c1ccc(C(=O)N(C)C[C@H]3[C@@H]4CN(C)C[C@@H]43)cc1)C2 [Example 661, (S)-N-(4-(3,3-dimethylureido)benzyl)-1-isopropyl-7-methyl-5-(4-(methyl(((1R,5S,6r)-3-methyl-3-azabicyclo[3.1.0]hexan-6-yl)methyl)carbamoyl)phenyl)-4,5,6,7-tetrahydro-1H-pyrazolo[4,3-c]pyridine-3-carboxamide]
10 | 8.52 | CC(C)n1nc(C(=O)NCc2ccc(NC(=O)N(C)C)cc2)c2c1[C@@H](C)CN(c1ccc(C(=O)N(C)CC3CCN(Cc4ccccc4)CC3)cc1)C2 [Example 662, (S)-5-(4-(((1-benzylpiperidin-4-yl)methyl)(methyl)carbamoyl)phenyl)-N-(4-(3,3-dimethylureido)benzyl)-1-isopropyl-7-methyl-4,5,6,7-tetrahydro-1H-pyrazolo[4,3-c]pyridine-3-carboxamide]
11 | 6.70 | CC(C)n1nc(C(=O)NCc2ccc(NC(=O)N3CCN(CCC(=O)O)CC3)c(F)c2)c2c1[C@@H](C)CN(c1ccc(C(=O)N(C)C)cc1)C2 [Example 669, (S)-3-(4-((4-((5-(4-(dimethylcarbamoyl)phenyl)-1-isopropyl-7-methyl-4,5,6,7-tetrahydro-1H-pyrazolo[4,3-c]pyridine-3-carboxamido)methyl)-2-fluorophenyl)carbamoyl)piperazin-1-yl)propanoic acid]
12 | 9.70 | CC(C)n1nc(C(=O)NCc2ccc(NC(=O)N3CCN(C)CC3)cc2)c2c1[C@@H](C)CN(c1ccc(-n3ccnn3)cc1)C2 [Example 674, (S)-5-(4-(1H-1,2,3-triazol-1-yl)phenyl)-1-isopropyl-7-methyl-N-(4-(4-methylpiperazine-1-carboxamido)benzyl)-4,5,6,7-tetrahydro-1H-pyrazolo[4,3-c]pyridine-3-carboxamide]
13 | 7.47 | CC(C)n1nc(C(=O)NCc2ccc(NC(=O)N(C)C)cc2)c2c1[C@@H](C)CN(c1ccc(C(=O)N3CCN4CCC[C@@H]4C3)cc1)C2 [Example 675, (S)-N-(4-(3,3-dimethylureido)benzyl)-1-isopropyl-7-methyl-5-(4-((R)-octahydropyrrolo[1,2-a]pyrazine-2-carbonyl)phenyl)-4,5,6,7-tetrahydro-1H-pyrazolo[4,3-c]pyridine-3-carboxamide]
14 | 9.52 | CC(C)n1nc(C(=O)NCc2ccc(NC(=O)N(C)C)cc2)c2c1[C@@H](C)CN(c1ccc(C(=O)N3Cc4cccnc4C3)cc1)C2 [Example 676, (S)-5-(4-(6,7-dihydro-5H-pyrrolo[3,4-b]pyridine-6-carbonyl)phenyl)-N-(4-(3,3-dimethylureido)benzyl)-1-isopropyl-7-methyl-4,5,6,7-tetrahydro-1H-pyrazolo[4,3-c]pyridine-3-carboxamide]
15 | 8.52 | CC(C)n1nc(C(=O)NCc2ccc(NC(=O)N3CC[C@@H](N(C)C)C3)c(F)c2)c2c1[C@@H](C)CN(c1ccc(C(=O)N(C)C)cc1)C2 [Example 678, (S)-N-(4-((R)-3-(dimethylamino)pyrrolidine-1-carboxamido)-3-fluorobenzyl)-5-(4-(dimethylcarbamoyl)phenyl)-1-isopropyl-7-methyl-4,5,6,7-tetrahydro-1H-pyrazolo[4,3-c]pyridine-3-carboxamide]

— US20250320213A1, “Nitrogen-Containing Heterocyclic Compounds” (Pfizer Inc., priority 2024, published 2025)
